Eleven compounds from ChEMBL document CHEMBL1201862, “PubChem BioAssay data set” (2004) can be followed below.

Among the test systems are HCC 2998; HCT-116; HCT-15; IGROV-1; MOLT-4; NCI-H226; OVCAR-3; OVCAR-4; OVCAR-5; RXF 393; SF-295; SF-539; SK-MEL-2; SNB-75; SR; TK-10; U-251; UACC-257; UACC-62.
Holding throughout (test): DTP human tumour cell line panel, 48 h

SMILES strings stand for the structures.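 Step 1: Grow cells in 96-well plates. Step 2: Expose to compound for 48 hours at 5 concentrations. Step 3: Interpolate endpoints linearly; if unreached, use highest concentration. GI50 is the concentration that inhibits growth by half.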 Activity calls are given as the source filed them. Cut-off read from the data, not from the text of the source: active = GI50 up to about 1.1 µM and inactive = higher. Where a SMILES comes first, the peptide text is derived from it.

For the compound `COc1ccc(NC(=O)CC(=O)N2N=C(N(CCC#N)c3ccccc3Cl)CC2c2ccccc2)cc1` (configuration not stated), the GI50 (usually the concentration giving 50% growth inhibition) with HCC 2998 is > 100 µM (inactive); in the assay on HCT-116 it was > 100 µM (inactive); in the assay on HCT-15 it was above 100 µM; in the assay on IGROV-1, > 100 µM (inactive); in the assay with MOLT-4, > 100 µM (inactive); in the assay with NCI-H226, > 100 µM (inactive). In addition, the GI50 with OVCAR-3, in the assay with OVCAR-4, in the assay with OVCAR-5, in the assay on RXF 393, in the assay with SF-295 and in the assay on SF-539 was > 100 µM (inactive) each time. In addition, the GI50 in the assay with SK-MEL-2, in the assay on SNB-75, in the assay with SR, in the assay with TK-10, in the assay with U-251 and in the assay with UACC-257 was > 100 µM (inactive) each time. Besides, the GI50 in the assay on UACC-62 was > 100 µM (inactive).
`O=C(c1nc2ccc(Cl)cc2[nH]c1=O)C(O)c1cccc([N+](=O)[O-])c1` (configuration not stated): the GI50 with HCC 2998 is > 100 µM (inactive); in the assay on HCT-116, > 100 µM (inactive); in the assay with HCT-15, above 100 µM; in the assay on IGROV-1, > 100 µM (inactive); in the assay on MOLT-4, 35.9 µM (inactive); in the assay with NCI-H226, > 100 µM (inactive). In addition, the GI50 in the assay with OVCAR-3, in the assay with OVCAR-4, in the assay on OVCAR-5, in the assay with RXF 393, with SF-295 and with SF-539 was > 100 µM (inactive) each time. Moreover, the GI50 in the assay on SK-MEL-2 was > 100 µM (inactive); with SNB-75 it was > 100 µM (inactive); with SR, 85.7 µM (inactive); in the assay on TK-10 it was > 100 µM (inactive); with U-251 it was > 100 µM (inactive); with UACC-257 it was > 100 µM (inactive). The GI50 in the assay on UACC-62 was 67.6 µM (inactive).
`O=C1C=C(c2[nH]c3ccccc3c2C2=CC(=O)c3ccccc3C2=O)C(=O)c2ccccc21`: the GI50 in the assay with IGROV-1 was 30.1 µM (inactive); in the assay on MOLT-4 it was 15 µM (inactive); in the assay on NCI-H226, 61.7 µM (inactive); with OVCAR-3 it was 21.6 µM (inactive); with OVCAR-4, 33.7 µM (inactive); in the assay with OVCAR-5 it was > 100 µM (inactive). For the same compound, the GI50 in the assay on RXF 393 is 39.7 µM (inactive); with SF-295 it was 36.1 µM (inactive); with SF-539, 34.8 µM (inactive); with SNB-75, 26 µM (inactive); with SR, 20.6 µM (inactive); in the assay with TK-10, 94.4 µM (inactive). Further, the GI50 in the assay on U-251 was 32.8 µM (inactive); in the assay with UACC-62, 24.9 µM (inactive).
With `O=C1Nc2c(ccc(Cl)c2I)C1=O`, the GI50 with HCC 2998 was 19.6 µM (inactive); with HCT-116, 19.1 µM (inactive); in the assay with HCT-15 it was 18.9 µM; with IGROV-1, 16.6 µM (inactive); with MOLT-4, 18.7 µM (inactive); with NCI-H226, 22.5 µM (inactive). Further, the GI50 in the assay on OVCAR-3 was 19.9 µM (inactive); in the assay on OVCAR-4, 16.9 µM (inactive); in the assay with OVCAR-5, 20 µM (inactive); with RXF 393, 17.4 µM (inactive); in the assay on SF-295, 19.2 µM (inactive); with SK-MEL-2, 13.7 µM (inactive). The GI50 in the assay with SR is 18.8 µM (inactive); with TK-10 it was 36.2 µM (inactive); in the assay with U-251, 25.5 µM (inactive); in the assay on UACC-257, > 10 µM (inactive); in the assay on UACC-62 it was 17.6 µM (inactive).
As for `CCC(C)C1NC(=O)C2CCCN2C(=O)CNC(=O)C(C)NC(=O)C(Cc2ccccc2)NC(=O)C(C(C)C)NC1=O` (configuration not stated) (cyclo(GPIVFA); configuration not given here), the GI50 in the assay on HCC 2998 is > 100 µM (inactive); in the assay on HCT-116, > 100 µM (inactive); with HCT-15, above 100 µM; in the assay with IGROV-1 it was > 100 µM (inactive); in the assay with MOLT-4 it was > 100 µM (inactive); in the assay with NCI-H226, > 100 µM (inactive). For the same compound, the GI50 in the assay with OVCAR-3, in the assay with OVCAR-4, in the assay on OVCAR-5, with RXF 393, with SF-295 and in the assay on SF-539 was > 100 µM (inactive) in each case. Moreover, the GI50 in the assay on SNB-75, with SR, with TK-10, with U-251, in the assay with UACC-257 and in the assay on UACC-62 was > 100 µM (inactive) in each case.
For `O=C1C(Cl)=C(NCCOCCO)C(=O)c2c(O)ccc(O)c21`, the GI50 was 2.86 µM (inactive) with HCT-116; 1.85 µM in the assay with HCT-15; 5.6 µM (inactive) in the assay on IGROV-1; 5.19 µM (inactive) in the assay on MOLT-4; 18.3 µM (inactive) in the assay with NCI-H226; 2.37 µM (inactive) in the assay on OVCAR-4. Also, the GI50 with OVCAR-5 is 19.5 µM (inactive); in the assay on RXF 393, 14.1 µM (inactive); with SF-295, 11.6 µM (inactive); in the assay on SF-539, 4.53 µM (inactive); in the assay with SK-MEL-2, 8.67 µM (inactive); in the assay with SNB-75 it was 17 µM (inactive). For the same compound, the GI50 in the assay with SR was 6.53 µM (inactive); in the assay with TK-10 it was 13.6 µM (inactive); with U-251, 17 µM (inactive); in the assay on UACC-257, 2.97 µM (inactive); in the assay on UACC-62, 3.24 µM (inactive).
With `COc1cc(C=C2C(=O)OC(C)(C)OC2=O)cc(OC)c1OC`, the GI50 in the assay on HCC 2998 was > 100 µM (inactive); in the assay on HCT-116, > 100 µM (inactive); with HCT-15, above 100 µM; in the assay with MOLT-4, > 100 µM (inactive); with NCI-H226, > 100 µM (inactive); in the assay on OVCAR-3, > 100 µM (inactive). Also, the GI50 with OVCAR-4, in the assay with OVCAR-5, in the assay with RXF 393, with SF-295, in the assay with SF-539 and with SK-MEL-2 was > 100 µM (inactive) in each case. Moreover, the GI50 in the assay with SR, with TK-10, in the assay on U-251, in the assay on UACC-257 and in the assay with UACC-62 was > 100 µM (inactive) throughout.
As for `O=C(O)C1=Cc2cccc3cccc(c23)C1=O`, the GI50 with HCC 2998 is > 100 µM (inactive); with HCT-116, > 100 µM (inactive); in the assay with HCT-15 it was above 100 µM; in the assay with IGROV-1, > 100 µM (inactive); in the assay on MOLT-4, > 100 µM (inactive); in the assay on NCI-H226, > 100 µM (inactive). In addition, the GI50 in the assay on OVCAR-3, in the assay with OVCAR-4, in the assay with OVCAR-5, in the assay with RXF 393, in the assay on SF-295 and with SK-MEL-2 was > 100 µM (inactive) each time. Also, the GI50 in the assay with SNB-75, in the assay with SR, with TK-10, in the assay on U-251, in the assay on UACC-257 and in the assay on UACC-62 was > 100 µM (inactive) in each case.
`O=C(c1cccs1)N(C(=S)N1CCN(c2ccccn2)CC1)c1ccccc1`: the GI50 in the assay with HCT-116 is 56.2 µM (inactive); in the assay on HCT-15 it was 61 µM; in the assay with IGROV-1, > 100 µM (inactive); with MOLT-4 it was 48.4 µM (inactive); in the assay with NCI-H226 it was 29 µM (inactive); in the assay with OVCAR-3, > 100 µM (inactive). Besides, the GI50 in the assay on OVCAR-4 was > 100 µM (inactive); in the assay with OVCAR-5, > 100 µM (inactive); with RXF 393 it was 35 µM (inactive); in the assay on SF-295, 80.4 µM (inactive); with SF-539 it was > 100 µM (inactive); in the assay on SK-MEL-2 it was 57.4 µM (inactive). Moreover, the GI50 was > 100 µM (inactive) with SNB-75; > 100 µM (inactive) in the assay with SR; > 100 µM (inactive) in the assay on TK-10; > 100 µM (inactive) with U-251; 83.2 µM (inactive) in the assay on UACC-257; 46.5 µM (inactive) in the assay on UACC-62.
For `COC(=O)[C@@]12OC[C@]34C([C@@H](O)C1O)[C@@]1(C)CC(=O)C(OC(=O)CC(C)C(F)(F)F)=C(C)C1C[C@H]3OC(=O)[C@H](O)[C@H]42` (some centres not stated), the GI50 with HCC 2998 was 2 µM (inactive); with HCT-116, 2.47 µM (inactive); in the assay with HCT-15, above 62.5 µM; with IGROV-1, 2.22 µM (inactive); in the assay with MOLT-4, 0.771 µM (active); in the assay on NCI-H226 it was 2.06 µM (inactive). The GI50 is 14.7 µM (inactive) in the assay with OVCAR-4; 19.6 µM (inactive) in the assay with OVCAR-5; 4.62 µM (inactive) in the assay with RXF 393; 5.16 µM (inactive) with SF-295; 1.51 µM (inactive) in the assay on SF-539; 2.95 µM (inactive) in the assay on SK-MEL-2. The GI50 in the assay on SNB-75 is 2.11 µM (inactive); in the assay with SR it was 2.73 µM (inactive); with TK-10, 5.51 µM (inactive); in the assay on U-251 it was 4.79 µM (inactive); with UACC-257, 2.93 µM (inactive); with UACC-62, 1.12 µM (active).
For `CC1=C(C(=O)Nc2ccccc2C)C(c2ccco2)C(C(=O)Nc2ccccc2C)=C(C)N1C`, the GI50 in the assay with HCC 2998 was > 100 µM (inactive); with HCT-116, > 100 µM (inactive); in the assay with IGROV-1, > 100 µM (inactive); with MOLT-4, 51.2 µM (inactive); in the assay on NCI-H226, > 100 µM (inactive); in the assay with OVCAR-3 it was > 100 µM (inactive). Besides, the GI50 in the assay on OVCAR-4, in the assay with OVCAR-5, in the assay with RXF 393, in the assay with SF-295, in the assay with SF-539 and in the assay with SK-MEL-2 was > 100 µM (inactive) in each case. Further, the GI50 in the assay with SR was 72.8 µM (inactive); in the assay with TK-10, > 100 µM (inactive); in the assay with U-251, > 100 µM (inactive); in the assay with UACC-257, > 100 µM (inactive); in the assay on UACC-62 it was > 100 µM (inactive).
